Structures are written as SMILES. Values after ≈ are worked out from the molar mass of the structure shown. Active and inactive are the calls of the source. The calls are words filed in the database; no cut-off is given here.

Type in all cases: functional
Assay [1] has as its system P388. In words: In vivo antitumor activity against mouse P388 cells at 8 mg/kg.
The test system of assay [2] is Echinoidea. The assay is described as follows: Inhibition of mitosis in sea urchin egg at 1 uM.
The test system of assay [3] is KB. The assay is described as follows: Cytotoxicity against human KB cells. The following applies: read-out: ED50 (the source's name).

Broadly, the T/C is the result in the treated group divided by that in the control group, in per cent. In assay [1], `COc1cc2c(c3oc4c(O)cccc4c(=O)c13)C[C@H]([C@@]1(C)CO1)O2` [PSOROSPERMIN] returned a T/C of 158%. For the same molecule, in assay [2], the outcome was Active. The EC50 in assay [3] turned out to be 0.1 µg/mL (≈ 0.294 µM).

The values are drawn from ChEMBL document CHEMBL1151342, “Psorospermin, a new antileukemic xanthone from Psorospermum febrifugum” (1980).
